In PubChem BioAssay AID179 (DTP/NCI, 2004):
pEC50, pIC50: −log10 of the molar value. “And” between values parts separate entries of the source, which are not always exact repeats. Identical values can stand only once. The source made the active and inactive calls.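 How the source made its calls: active means compounds giving half or more protection of infected cells from virus-caused growth loss, again on retest; inactive means the rest.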

Tested on: CEM cells HIV-1 protection, formazan growth assay
Assay: NCI AIDS Antiviral Assay
Conditions: for pIC50: measured here: growth of uninfected CEM cells
Procedure, shortened: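 Soluble formazan readout of cell growth; CEM cells ± HIV-1; 5 drug concs. ≥50% protection → retest; ≥50% again = moderately active; reproducible 100% = confirmed active.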

SMILES	pEC50	outcome	pIC50
O=C(O)CC1OCC=C2CN3CCC45c6ccccc6NC4C1C2CC35 (stereo not given)	< 4.07	inactive	< 4.07
O=C(O)C1CSC(c2cccs2)N1 (stereo not given)	< 3.70	–	< 3.70
C1CC2N=C3OCCC3N=C2O1 (stereo not given)	< 2.82	–	< 2.82
CC[C@@]1(O)C(=O)OCc2c1cc1n(c2=O)Cc2cc3c(OC)cccc3nc2-1	< 7.00	–	7.85
CC(=O)/C(=C/c1ccc(N(C)C)cc1)C(=O)c1ccccc1	< 5.17	–	< 5.17
COc1cc(OC)nc(-n2c(N)c(C(=O)O)c3ccc([N+](=O)[O-])cc3c2=O)n1	< 3.70	–	4.37
O=C(Cc1ccccc1)N/N=C(/c1nc2ccc([N+](=O)[O-])cc2[nH]c1=O)C(O)c1ccccc1Cl (stereo not given)	< 4.14	–	< 4.14
COc1ccc(N2C(=O)C3c4[nH]c5ccc(OCc6ccccc6)cc5c4C4CCC(C(C)C)CC4C3C2=O)cc1 (stereo not given)	< 4.00	–	< 4.00
CC(C)=CCC[C@@H](C)C1=C(N)C(O)=C(C)C(=O)C1=O	< 3.70	–	4.87
CCCc1ccc(OC2OC(COC(C)=O)C(OC(C)=O)C(OC(C)=O)C2OC(C)=O)cc1 (stereo not given)	< 4.02	–	< 4.02
COc1cccc2c1C(CO)N1C(C#N)C3CC(C(=O)O)C(C1C2)N3C (stereo not given)	< 6.45	–	7.43
Cc1cccc(C)c1NC(=O)C(=O)CC(=O)/C=C/c1ccccc1	< 3.11	–	3.41
COC(=O)/C=C(C)/C=C/c1cc(C(C)=O)c(C)o1	< 3.84	–	3.99
COc1cc2c(C)cc(=O)oc2cc1O	< 3.34	–	3.83
Cc1c(Cc2ccc(Cl)cc2)c(=O)[nH]c(=O)n1C	< 4.01	–	< 4.01
CCCC(=O)Nc1cc(C)c(NC(=O)CN(CC)CC)c(C)c1	< 3.70	–	< 3.70
Cc1cc2c(c(N)c1C)C(=O)c1ccccc1C2=O	–	inactive	–
COC1CC(O[C@H]2CC[C@@]3(C)[C@H](CC[C@@H]4[C@@H]3CC[C@]3(C)[C@@H](C5=CC(=O)OC5)[C@@H](OC(C)=O)C[C@]43O)C2)OC(C)C1O (stereo not given in full)	< 6.70	–	7.99
O=C1C(S(=O)(=O)c2ccccc2)=C(CS(=O)(=O)c2ccccc2)[C@@H](OCc2ccccc2)[C@@H]1OCc1ccccc1	< 4.70	–	5.02
CC(=O)N(CCc1ccccc1)C(C#N)c1ccc(OCCCCCCCCCCOc2ccc(C(C#N)N(CCc3ccccc3)C(C)=O)cc2)cc1 (stereo not given)	< 4.00	–	< 4.00
O=[N+]([O-])c1ccc2c(c1)Sc1ccccc1N2CCCCCl	< 3.70	–	4.72
O=c1c2ccccc2nc(-c2ccccc2)n1NC(=S)Nc1cccc(Cl)c1	< 4.48	–	< 4.48

SMILES	pEC50	outcome	pIC50
OCCNCCN=C1CCC(=NCCNCCO)CC1	< 3.70	–	4.49
CC(=O)Nc1ccccc1/C=C\c1ccccn1	< 2.98	–	< 2.98
COc1cc(C(=O)O)c(-c2cc3c(cc2C=O)OCO3)c(OC)c1OC	< 3.16	–	< 3.16
CC1(C)OC(=O)C(=Cc2ccc(F)cc2)C(=O)O1	< 3.28	–	3.77
C/C(=N\NC(=O)CC#N)C(CN1CCCCC1)C(c1ccccc1)c1c(O)c2ccccc2oc1=O (stereo not given)	< 4.15	–	4.39
COc1cc2c(cc1OC)C(=O)/C(=C/c1ccc(N(C)C)cc1)CC2	< 3.81	–	3.96
[N-]=[N+]=NCCOCn1ccc(=O)[nH]c1=O	< 3.70	–	< 3.70
C[N+]12CCCCC1C(CN1C(=O)Cc3c4ccccc4c(c4ccccc34)CC1=O)CCC2 (stereo not given)	< 3.70	–	< 3.70
CCOC(=O)CC(NC(=O)c1ccc(N=NN(C)C)cc1)C(=O)OCC (stereo not given)	< 3.73	–	< 3.73
CCOc1cc2ccc3c4cc(OC)c(OC)cc4cnc3c2cc1OCC	< 4.44	–	< 4.44
CC(C)(C)C1=NC(=S)SC2=NC(=O)C3(NN21)c1ccccc1-c1ccccc13	< 3.70	–	4.70
COCN1C(=O)[C@@H]2CCCN2C(=O)c2ccc(N)cc21	< 3.70	–	< 3.70
Oc1ccc(-c2nc(=S)[nH][nH]2)cc1	< 3.03	–	4.14
CNP(=S)(Oc1cc(Cl)c(Cl)cc1Cl)N1CCN(c2ccc(Cl)cc2)CC1 (stereo not given)	< 4.44	–	4.67
C=COCCC(C(=O)OCC)C(=O)OCC	< 3.70	–	< 3.70
O=C(NC1C=Nc2ccc([N+](=O)[O-])cc2NC1=O)c1ccc(Cl)cc1 (stereo not given)	< 3.70	–	< 3.70
N#CCC(=O)N/N=C1/C(=O)N(c2ccc(Cl)cc2)C(=O)C(=O)C1c1nc2ccccc2s1 (stereo not given)	–	inactive	–
O=C(O)[C@H]1[C@@H](C2CCCCC2)O[C@@H](C2CCCCC2)O[C@H]1C(F)(F)F	< 3.70	–	3.72
CC(O[Si](C)(C)C(C)(C)C)[C@H](NC(=O)OCC(Cl)(Cl)Cl)C(=O)O (stereo not given in full)	< 3.21	–	< 4.00
NC(=S)N/N=C\C12CC3CC(CC(C3)C1)C2	–	inactive	–
Cc1ccc(-n2cc(-c3ccc(Cl)cc3)c3c(=N)n(N)cnc32)cc1	< 4.00	–	4.87
O=C(CN1CCOCC1)NC1=Nc2ncccc2C(=O)NN1	< 3.70	–	3.94

SMILES	pEC50	outcome	pIC50
COc1cccc2c1C(=O)c1c(O)c3c(c(O)c1C2=O)C[C@@](O)(C(=O)CO)C[C@@H]3OC1CC(N2CCOCC2C#N)C(O)C(C)O1 (stereo not given in full)	< 4.81	–	8.30
CCCCCCCCCc1ccc(Oc2ccc3c(c2)-c2nc-3nc3[nH]c(nc4nc(nc5[nH]c(n2)c2ccc(Oc6ccc(CCCCCCCCC)cc6)cc52)-c2cc(Oc5ccc(CCCCCCCCC)cc5)ccc2-4)c2ccc(Oc4ccc(CCCCCCCCC)cc4)cc32)cc1	< 4.87	–	< 4.87
CCOC(=O)C(NC(=O)c1ccccc1)(c1ccc(S(=O)(=O)Nc2onc(C)c2C)cc1)C(F)(F)F (stereo not given)	< 3.70	–	< 3.70
CCc1cc2c(O)c(c1)Cc1cc(CC)cc(c1O)Cc1cc(CC)cc(c1O)Cc1cc(CC)cc(c1O)Cc1cc(CC)cc(c1O)Cc1cc(CC)cc(c1O)Cc1cc(CC)cc(c1O)C2	< 5.00	–	< 5.00
Nc1cccc(S(=O)(=O)N(CC(=O)O)c2ccccc2)c1	–	inactive	–
c1ccc(-c2csc3c2-n2cccc2C3N2CCCC2)cc1 (stereo not given)	< 3.70	–	4.87
O=C(Nc1nccs1)c1cc(C2=CC=CC([N+](=O)[O-])C=C2)nc(=S)[nH]1 (stereo not given)	< 4.02	–	< 4.02
CCn1c(N)c(N=O)c(=O)n(C)c1=O	< 3.70	–	< 3.70
COc1ccc(N=C(C)c2ccncc2)cc1	< 3.70	–	4.98
CCOC(=O)c1nc2ccc(C(F)(F)F)cc2nc1Oc1ccc(C(=O)OC)cc1	< 3.70	–	< 3.70
c1cnc2c(c1)-n1cccc1C1(CCSCC1)NN2	< 4.22	–	< 4.22
CCOC(C)O[C@H]1C(=O)OCC1(C)C (stereo not given in full)	4.11	–	< 3.70
CC1=CC(C)(C)NC(=S)N1CCO	–	inactive	–
COc1ccc(C(=O)C2=NON3OC23C(=O)c2ccc(OC)cc2)cc1 (stereo not given)	< 4.42	–	5.17
CC#CCCC1(C)CCCCN(C(=O)OC(C)C)C1OCC (stereo not given)	< 4.36	–	< 4.36
C/C(=C/C=C(/C)C(=O)O)C(=O)O	< 2.83	–	< 2.83
CC(C)C1/C(=N/O)CC(c2ccccc2)N(N=O)C1c1ccccc1 (stereo not given)	< 3.70	–	4.18
CC1(C)CC(=O)C2C(C1)OC1CC(C)(C)CC(=O)C1C2c1ccc2c(c1)OCO2 (stereo not given)	< 3.70	–	3.81
O=c1ccc2cc(O)ccc2o1	< 3.70	–	< 3.70
CC(=O)Nc1ccc(/C=C2\C=Cc3ccccc32)cc1	< 4.70	–	4.88
COc1ccc(C2C3CCCC(C3=O)C(c3ccc(OC)cc3)N2N=O)cc1 (stereo not given)	< 4.72	–	< 4.72
CC1=Nn2c(nnc2-c2cccc(N)c2)NC(C)(C)C1	< 3.33	–	< 3.33

SMILES	pEC50	outcome	pIC50
O=C1CC2(CCCC2)C(=O)N1c1cccc([N+](=O)[O-])c1	< 3.46	–	3.56
Cc1cn(C2OC(CO)C(CN=[N+]=[N-])C2O)c(=O)[nH]c1=O (stereo not given)	< 3.70	–	< 3.70
O=C(O)c1c(-c2cccc3ccccc23)sc(-c2cccc3ccccc23)c1C(=O)O	–	inactive	–
CC(O)(C(=O)N(O)c1ccc(Cl)cc1)c1ccc(Cl)cc1 (stereo not given)	< 4.70	–	4.75
CC(=O)OCC(C)(COC(C)=O)N1C(=O)C2C3c4ccccc4C(c4ccccc43)C2C1=O (stereo not given)	< 3.70	–	< 3.70
N#Cc1ccccc1C(Cl)(Cl)c1cnccn1	< 3.31	–	4.19
COC(=O)CCCc1c(-c2[nH]c3ccccc3c2CCCC(=O)OC)[nH]c2ccccc12	< 3.70	–	< 3.70
NC(=O)c1nnsc1-c1ccco1	< 3.70	–	< 3.70
CCc1ccc(/C(C)=N/NC(N)=S)cc1	–	inactive	–
Cc1cn([C@H]2C[C@@H]3[C@@H](COC(CCl)N3O)O2)c(=O)[nH]c1=O (stereo not given in full)	< 3.70	–	4.50
O=C1NC(=O)C(=Cc2cccc(Br)c2)C(=O)N1	< 3.91	–	< 3.91
O=S(=O)(C1=CC(S(=O)(=O)c2ccccc2)CN(Cc2ccccc2)C1c1ccccc1)c1ccccc1 (stereo not given)	–	inactive	–
Cc1cn(C2CC(N(C)O)C(CO)O2)c(=O)[nH]c1=O (stereo not given)	4.50 and < 3.70	–	< 3.70 and 4.48
Cn1c(=O)c(Br)c(C=O)n(CCO[N+](=O)[O-])c1=O	< 3.70	–	5.75
COC1/C=C/OC2(C)Oc3c(C)c(O)c4c(O)c(c(/C=N/OC/C=C(\C)CCC=C(C)C)c(O)c4c3C2=O)NC(=O)C(C)=C/C=C/C(C)C(O)C(C)C(O)C(C)C(OC(C)=O)C1C (stereo not given)	< 3.70	–	5.35
CCOC(=O)N1CCN(C(=O)Nc2cccc3ccccc23)CC1	–	inactive	–
O=C1OC(C(O)CO)C(O)=C1O (stereo not given)	–	inactive	–
COC1=CC(=O)c2ccccc2C1(CCC=C(C)C)C1=NC(C)(C)CO1 (stereo not given)	–	inactive	–
Cc1ccc(/C=C/C(=O)Oc2ccc(/C=C3\CCC/C(=C\c4ccc(OC(=O)/C=C/c5ccc(C)cc5)cc4)C3=O)cc2)cc1	< 4.00	–	< 4.00
